The source of these data is patent US20260355212A1 (priority 2022, published 2026).

Read-outs that look alike come from different tables or passages of the source.

For one experiment, the target named is SARS-CoV-1 Mpro (Severe acute respiratory syndrome coronavirus, UniProt P0C6X7). The experiment can be described thus: biochemical.
For the next experiment, the target named is MERS Mpro (Middle East respiratory syndrome-related coronavirus, UniProt K9N7C7). The experiment can be described thus: biochemical. More on the design: species or system MERS-CoV.
Chain of MERS Mpro (K9N7C7 3248-3553 limits assumed): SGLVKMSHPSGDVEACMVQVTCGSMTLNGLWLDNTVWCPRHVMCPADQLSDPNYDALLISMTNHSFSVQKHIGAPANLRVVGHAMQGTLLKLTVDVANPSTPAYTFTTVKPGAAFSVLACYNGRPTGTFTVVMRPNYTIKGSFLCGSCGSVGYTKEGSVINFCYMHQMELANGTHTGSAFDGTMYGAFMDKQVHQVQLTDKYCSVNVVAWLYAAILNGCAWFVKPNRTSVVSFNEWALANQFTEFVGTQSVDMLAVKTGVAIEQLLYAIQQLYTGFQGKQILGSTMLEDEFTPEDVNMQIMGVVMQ
Another experiment concerns the target HCoV-HKU1 Mpro (Human coronavirus HKU1, UniProt P0C6X2). The experiment can be described thus: HCoV-HKU1 Mpro enzymatic inhibition assay (fluorescence). Format: biochemical. As to the method: (§1) The hCoV Mpro are cloned, expressed in E. coli and purified by WuXi AppTec Co., Ltd. The substrate are synthesized by Genscript Biotech.
(§2) Compounds are 3 fold serially diluted for 10 doses and added to an assay plate (384w format) using ECHO, in duplicate wells. The test concentration of test compounds is defined by sponsor. […] For no inhibition control (ZPE, zero percent effect), DMSO is added.
(§3) 25 μL of Mpro proteins are added to the assay plates containing compounds, respectively, using Multidrop. The compounds and Mpro proteins are pre-incubated at room temperature for 30 min. Then 5 µL of Mpro substrates are added to the related assay plates, respectively. Each activity testing point has a relevant background control to normalize the fluorescence interference of compound.
(§4) After 60 min incubation at 30° C., the fluorescence signal (RFU) is detected using a microplate reader M2e (SpectraMax) at Ex/Em=340 nm/490 nm.
(§5) The inhibition activity is calculated using the formula below, IC50 values will be calculated using the Inhibition % data.
(§6) Inhibition %=[(CPD−BGCPD)−(ZPE−BGZPE)/(HPE−BGHPE)−(ZPE−BGZPE)]×[…] • CPD: Signal of test compounds wells, containing compound+enzyme+substrate. • ZPE: Average of signals of zero percent effective control wells, containing enzyme+substrate, no compound. • HPE: Average of signals of hundred percent effect control wells, containing GC376+enzyme+substrate. • BG: Compound background control wells, containing compound+substrate, no enzyme
(§7) IC50 values of compounds are calculated with the GraphPad Prism software using the nonlinear regression model of log(inhibitor) vs. response—Variable slope (four parameters).

The target of the next experiment is HCoV-229E Mpro (Human coronavirus 229E, UniProt P0C6X1). Kind of experiment: HCoV-229E Mpro enzymatic inhibition assay (fluorescence). Format: biochemical. As to the method: as §1, §2, §3, §4, §5, §6, §7
Chain of HCoV-229E Mpro (P0C6X1 2966-3267 limits assumed): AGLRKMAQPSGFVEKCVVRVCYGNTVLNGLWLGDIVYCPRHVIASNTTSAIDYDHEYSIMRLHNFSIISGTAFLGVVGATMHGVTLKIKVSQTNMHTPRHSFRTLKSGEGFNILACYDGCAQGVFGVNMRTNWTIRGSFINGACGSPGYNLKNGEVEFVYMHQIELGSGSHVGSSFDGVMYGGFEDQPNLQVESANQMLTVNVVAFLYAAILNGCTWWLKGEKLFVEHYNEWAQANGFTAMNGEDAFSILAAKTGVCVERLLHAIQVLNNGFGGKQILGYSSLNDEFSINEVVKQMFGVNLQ
For a further experiment, the target named is HCoV-OC43 Mpro (Human coronavirus OC43, UniProt P0C6X6). Kind of experiment: HCoV-OC43 Mpro enzymatic inhibition assay (fluorescence). Format: biochemical. As to the method: as §1, §2, §3, §4, §5, §6, §7
Chain of HCoV-OC43 Mpro (P0C6X6 3247-3549 limits assumed): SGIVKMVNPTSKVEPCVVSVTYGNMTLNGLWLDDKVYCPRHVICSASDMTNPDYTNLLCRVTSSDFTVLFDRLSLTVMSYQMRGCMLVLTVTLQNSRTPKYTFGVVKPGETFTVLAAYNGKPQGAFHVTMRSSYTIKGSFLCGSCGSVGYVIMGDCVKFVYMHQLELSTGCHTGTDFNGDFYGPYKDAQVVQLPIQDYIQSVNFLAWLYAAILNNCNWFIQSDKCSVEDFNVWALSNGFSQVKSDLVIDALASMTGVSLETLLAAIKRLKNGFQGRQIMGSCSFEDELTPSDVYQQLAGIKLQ
Another experiment addresses HCoV-NL63 Mpro (Human coronavirus NL63, UniProt P0C6X5). Kind of experiment: HCoV-NL63 Mpro enzymatic inhibition assay (fluorescence). Format: biochemical. As to the method: as §1, §2, §3, §4, §5, §6, §7
Another experiment deals with SARS-CoV-2 Mpro (Severe acute respiratory syndrome coronavirus 2, UniProt P0DTD1). Kind of experiment: SARS-CoV-2 Mpro enzymatic inhibition assay (fluorescence). The format is biochemical. In a few lines: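 Recombinant Mpro expressed in E. coli was preincubated 30 min at room temperature with 10-point, 3-fold serially diluted compound in duplicate. Fluorogenic substrate was then added and incubated 60 min at 30° C, and fluorescence read at Ex/Em 340/490 nm. IC50 came from a four-parameter fit of % inhibition.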

The mark [1] stands for this setting: mean, 25 nM protein, 25 μM substrate, 30 min pre-incubation, 60 min at 30° C., read-out: Mpro_SARS-CoV-2 mean IC50.

Chain of HCoV-HKU1 Mpro (P0C6X2 3335-3637 limits assumed): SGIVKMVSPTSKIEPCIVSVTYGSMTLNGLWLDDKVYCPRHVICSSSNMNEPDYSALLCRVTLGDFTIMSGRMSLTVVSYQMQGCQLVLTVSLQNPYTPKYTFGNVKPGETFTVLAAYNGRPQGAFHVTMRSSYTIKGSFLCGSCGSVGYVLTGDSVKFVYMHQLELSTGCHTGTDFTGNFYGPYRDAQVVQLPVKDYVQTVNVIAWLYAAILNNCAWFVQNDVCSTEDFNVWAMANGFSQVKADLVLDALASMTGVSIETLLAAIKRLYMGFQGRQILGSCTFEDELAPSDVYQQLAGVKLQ
Chain of HCoV-NL63 Mpro (P0C6X5 2940-3242 limits assumed): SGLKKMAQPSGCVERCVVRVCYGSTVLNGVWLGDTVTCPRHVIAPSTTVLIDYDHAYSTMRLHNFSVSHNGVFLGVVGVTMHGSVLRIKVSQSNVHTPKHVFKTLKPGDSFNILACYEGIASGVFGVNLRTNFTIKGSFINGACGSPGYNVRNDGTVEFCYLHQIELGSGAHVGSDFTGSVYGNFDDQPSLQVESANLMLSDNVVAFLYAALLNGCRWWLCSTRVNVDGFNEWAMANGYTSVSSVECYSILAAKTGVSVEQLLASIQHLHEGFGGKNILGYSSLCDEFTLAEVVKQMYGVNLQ

Regarding `Cc1ccc2cc(C(=O)N3C[C@H]4[C@@H]([C@H]3C(=O)N[C@H](C=O)C[C@@H]3CCNC3=O)C4(C)C)[nH]c2c1C` [Compound 18, (1R,2S,5S)-3-(6,7-dimethyl-1H-indole-2-carbonyl)-6,6-dimethyl-N—((S)-1-oxo-3-((S)-2-oxopyrrolidin-3-yl)propan-2-yl)-3-azabicyclo[3.1.0]hexane-2-carboxamide], the IC50 (in general, the midpoint of a concentration-inhibition curve) was 33.6 nM on SARS-CoV-1 Mpro; 301 nM at MERS Mpro; 33.1 nM against HCoV-HKU1 Mpro; 38.8 nM against HCoV-229E Mpro; 65.9 nM against HCoV-OC43 Mpro; 76.1 nM against HCoV-NL63 Mpro. The IC50 against SARS-CoV-2 Mpro came out at 15.3 nM.
In the case of `CC1(C)[C@@H]2[C@@H](C(=O)N[C@H](C=O)C[C@@H]3CCNC3=O)N(C(=O)CC3CCOCC3)C[C@@H]21` [Compound 86, (1R,2S,5S)-6,6-Dimethyl-N—((S)-1-oxo-3-((S)-2-oxopyrrolidin-3-yl)propan-2-yl)-3-(2-(tetrahydro-2H-pyran-4-yl)acetyl)-3-azabicyclo[3.1.0]hexane-2-carboxamide], the IC50 against SARS-CoV-1 Mpro came to 69.5 nM; against MERS Mpro, 318 nM; at HCoV-HKU1 Mpro, 33.7 nM; against HCoV-229E Mpro, 34.2 nM; against HCoV-OC43 Mpro, 52.5 nM; at HCoV-NL63 Mpro, 78.8 nM. This molecule had an IC50 at SARS-CoV-2 Mpro of 39.7 nM.
As for `Cc1cccc2c1cc(C(=O)N1C[C@H]3[C@@H]([C@H]1C(=O)N[C@H](C=O)C[C@@H]1CCNC1=O)C3(C)C)n2C` [Compound 118, (1R,2S,5S)-3-(1,4-Dimethylindole-2-carbonyl)-N-[(1S)-1-formyl-2-[(3S)-2-oxopyrrolidin-3-yl]ethyl]-6,6-dimethyl-3-azabicyclo[3.1.0]hexane-2-carboxamide], the IC50 against SARS-CoV-1 Mpro worked out at 349 nM; at MERS Mpro it was 3290 nM; against HCoV-HKU1 Mpro it was 324 nM; against HCoV-229E Mpro, 325 nM; at HCoV-OC43 Mpro it was 436 nM; against HCoV-NL63 Mpro it was 1780 nM. Further, the IC50 against SARS-CoV-2 Mpro worked out at 127 nM.
With `CC(C)c1ccc(F)c2[nH]c(C(=O)N3C[C@H]4[C@@H]([C@H]3C(=O)N[C@H](C#N)C[C@@H]3CCNC3=O)C4(C)C)cc12` [Compound 131, (1R,2S,5S)—N—((S)-1-Cyano-2-((S)-2-oxopyrrolidin-3-yl)ethyl)-3-(7-fluoro-4-isopropyl-1H-indole-2-carbonyl)-6,6-dimethyl-3-azabicyclo[3.1.0]hexane-2-carboxamide], the IC50 is 772 nM against SARS-CoV-1 Mpro; 9760 nM against MERS Mpro; 1140 nM against HCoV-HKU1 Mpro; 690 nM on HCoV-229E Mpro; 1540 nM against HCoV-OC43 Mpro; 1590 nM against HCoV-NL63 Mpro. For the same molecule, on SARS-CoV-2 Mpro, the IC50 was found to be 401 nM.
Regarding `O=C[C@H](C[C@@H]1CCNC1=O)NC(=O)[C@@H]1[C@H]2CCC[C@H]2CN1C(=O)c1cc2ccccc2[nH]1` [Compound 26, (1S,3aR,6aS)-2-(1H-indole-2-carbonyl)-N—((S)-1-oxo-3-((S)-2-oxopyrrolidin-3-yl)propan-2-yl)octahydrocyclopenta[c]pyrrole-1-carboxamide], the IC50 came out at 93.7 nM on SARS-CoV-1 Mpro; 173 nM on MERS Mpro; 20.7 nM on HCoV-HKU1 Mpro; 42.7 nM at HCoV-229E Mpro; 28.6 nM on HCoV-OC43 Mpro; 37.8 nM at HCoV-NL63 Mpro. This molecule also returned a half-inhibitory concentration (IC50) on SARS-CoV-2 Mpro of 16.8 nM.
For `CC1(C)C[C@@H](C(=O)N[C@H](C=O)C[C@@H]2CCNC2=O)N(C(=O)c2cc3cccc(F)c3[nH]2)C1` [Compound 62, (S)-1-(7-Fluoro-1H-indole-2-carbonyl)-4,4-dimethyl-N—((S)-1-oxo-3-((S)-2-oxopyrrolidin-3-yl)propan-2-yl)pyrrolidine-2-carboxamide], the 50% inhibitory concentration (IC50) turned out to be 77.1 nM against SARS-CoV-1 Mpro; 535 nM against MERS Mpro; 55.7 nM at HCoV-HKU1 Mpro; 64.4 nM on HCoV-229E Mpro; 145 nM at HCoV-OC43 Mpro; 90.7 nM on HCoV-NL63 Mpro. Also, the IC50 against SARS-CoV-2 Mpro was 26.3 nM.
For `CC1(C)[C@@H]2[C@@H](C(=O)N[C@H](C=O)C[C@@H]3CCCNC3=O)N(C(=O)CC3CCCCC3)C[C@@H]21` [Compound 79, (1R,2S,5S)-3-(2-Cyclohexylacetyl)-6,6-dimethyl-N—((S)-1-oxo-3-((S)-2-oxopiperidin-3-yl)propan-2-yl)-3-azabicyclo[3.1.0]hexane-2-carboxamide], the IC50 at SARS-CoV-1 Mpro is 25.9 nM; at MERS Mpro, 177 nM; on HCoV-HKU1 Mpro, 27.1 nM; on HCoV-229E Mpro, 50.8 nM; against HCoV-OC43 Mpro, 38.6 nM; against HCoV-NL63 Mpro, 57.8 nM. Half-maximal inhibition against SARS-CoV-2 Mpro (IC50) required 34.5 nM.
On to `O=C[C@H](C[C@@H]1CCNC1=O)NC(=O)[C@@H]1C[C@@H](C2CCCCC2)CN1C(=O)c1cc2c(F)cccc2[nH]1` [Compound 38, (2S,4S)-4-Cyclohexyl-1-(4-fluoro-1H-indole-2-carbonyl)-N—((S)-1-oxo-3-((S)-2-oxopyrrolidin-3-yl)propan-2-yl)pyrrolidine-2-carboxamide], for which the half-inhibitory concentration (IC50) is 97 nM against SARS-CoV-1 Mpro; 516 nM at MERS Mpro; 16 nM at HCoV-HKU1 Mpro; 41.6 nM on HCoV-229E Mpro; 46 nM at HCoV-OC43 Mpro; 100 nM on HCoV-NL63 Mpro. The same molecule yielded an IC50 at SARS-CoV-2 Mpro of 21 nM.
As to `CC1(C)[C@@H]2[C@@H](C(=O)N[C@H](C=O)C[C@@H]3CCNC3=O)N(C(=O)CC3CCCCC3)C[C@@H]21` [Compound 53, (1R,2S,5S)-3-(2-cyclohexylacetyl)-6,6-dimethyl-N—((S)-1-oxo-3-((S)-2-oxopyrrolidin-3-yl)propan-2-yl)-3-azabicyclo[3.1.0]hexane-2-carboxamide], the IC50 on SARS-CoV-1 Mpro was 45.7 nM; against MERS Mpro, 326 nM; at HCoV-HKU1 Mpro, 25.6 nM; against HCoV-229E Mpro it was 29.7 nM; at HCoV-OC43 Mpro, 26.3 nM; on HCoV-NL63 Mpro, 66.5 nM. Besides, the IC50 at SARS-CoV-2 Mpro (setting [1]) stood at 25 nM.
Take `N#Cc1cccc2[nH]c(C(=O)N3CC4(CC4)C[C@H]3C(=O)N[C@H](C=O)C[C@@H]3CCNC3=O)cc12` [Compound 76, (S)-5-(4-Cyano-1H-indole-2-carbonyl)-N—((S)-1-oxo-3-((S)-2-oxopyrrolidin-3-yl)propan-2-yl)-5-azaspiro[2.4]heptane-6-carboxamide]: the IC50 at SARS-CoV-1 Mpro was 60.6 nM; on MERS Mpro, 200 nM; at HCoV-HKU1 Mpro, 13.1 nM; on HCoV-229E Mpro, 26.9 nM; on HCoV-OC43 Mpro, 30.1 nM; against HCoV-NL63 Mpro it was 33 nM. Also, on SARS-CoV-2 Mpro, inhibition was half-maximal at 32.7 nM (IC50).
As to `O=C[C@H](C[C@@H]1CCNC1=O)NC(=O)[C@@H]1C[C@@H](C2CCCCC2)CN1C(=O)c1cc2ccccc2[nH]1` [Compound 61, (2S,4S)-4-Cyclohexyl-1-(1H-indole-2-carbonyl)-N—((S)-1-oxo-3-((S)-2-oxopyrrolidin-3-yl)propan-2-yl)pyrrolidine-2-carboxamide], the IC50 against SARS-CoV-1 Mpro came out at 147 nM; against MERS Mpro, 438 nM; on HCoV-HKU1 Mpro, 12.6 nM; at HCoV-229E Mpro, 43.2 nM; against HCoV-OC43 Mpro it was 38.7 nM; at HCoV-NL63 Mpro, 200 nM. On SARS-CoV-2 Mpro (setting [1]), the half-inhibitory concentration (IC50) came to 26 nM.
On to `CC1(C)C[C@@H](C(=O)N[C@H](C=O)C[C@@H]2CCNC2=O)N(C(=O)c2cc3c(F)cccc3[nH]2)C1` [Compound 51, (S)-1-(4-Fluoro-1H-indole-2-carbonyl)-4,4-dimethyl-N—((S)-1-oxo-3-((S)-2-oxopyrrolidin-3-yl)propan-2-yl)pyrrolidine-2-carboxamide], for which the IC50 at SARS-CoV-1 Mpro turned out to be 38 nM; against MERS Mpro, 192 nM; at HCoV-HKU1 Mpro, 13 nM; at HCoV-229E Mpro, 27.3 nM; on HCoV-OC43 Mpro it was 21.9 nM; on HCoV-NL63 Mpro, 22.2 nM. At SARS-CoV-2 Mpro, half-maximal inhibition (IC50) required 24.4 nM.
With `CC(C)(C)CC(=O)N1C[C@H]2[C@@H]([C@H]1C(=O)N[C@H](C=O)C[C@@H]1CCNC1=O)C2(C)C` [Compound 95, (1R,2S,5S)-3-(3,3-Dimethylbutanoyl)-6,6-dimethyl-N—((S)-1-oxo-3-((S)-2-oxopyrrolidin-3-yl)propan-2-yl)-3-azabicyclo[3.1.0]hexane-2-carboxamide], the IC50 worked out at 100 nM on SARS-CoV-1 Mpro; 413 nM against MERS Mpro; 64.4 nM at HCoV-HKU1 Mpro; 67.5 nM at HCoV-229E Mpro; 124 nM against HCoV-OC43 Mpro; 189 nM at HCoV-NL63 Mpro. In addition, the IC50 at SARS-CoV-2 Mpro (setting [1]) amounted to 45.5 nM.
